The source of these data is PMC10440361 (Current Research in Pharmacology and Drug Discovery, 2023).

Read-outs that look alike come from different tables or passages of the source.

The subject of assay [1] is adult male Wistar rats. The experiment in a line: Skin blood flow. The class given is in vivo. Conditions: anesthetized rats, IV infusion; discussion statement.
The test system of assay [2] is adult male Sprague Dawley rats. The assay can be described thus: Arterial blood pressure by telemetry after SC administration in rats. The format is in vivo. Conditions: conscious telemetered Sprague Dawley rats, n=6.
The test system of assay [3] is adult male cynomolgus monkeys. The class given is in vivo. The following applies: for time for which increases from baseline in MAP above 20 mmHg were sustained: average; for average increase in MAP between 30 min and 5 h after administration: vehicle SC 0.8 mmHg; for maximum Δ MAP / maximum MAP values (increase from baseline): telemetered cynomolgus monkeys; for maximum Δ MAP: vehicle SC 25.9 ± 1.6 mmHg; for average increase in MAP between 30 min and 5 h: vehicle 3.5 mmHg; for maximum MAP values (increase from baseline): IV vehicle 22.2 ± 3.5 mmHg.

For assay [4], the target named is human V1a receptors. The following applies: read-out: EC50 for human V1a; ref Croston et al., 2023; cited from earlier work.
Assay [5] deals with human V2 receptors. The following applies: ref Croston et al., 2023, cited from earlier work.
Assay [6] concerns rat V2 receptor. The following applies: cell-based functional assays; ref Croston et al., 2023; cited from earlier work.

Usually EC50 stands for the concentration needed to bring the measured effect to its halfway point. As for “[Phe2,Dab(Lys(Lys(Ac)-[Ala6,Glu9]))8]VT [OCE-205]”, in assay [1], the “approximately maximal decrease in SBF from baseline” value is around 40%. The “maximum increase in mean arterial blood pressure vs mean pre-test value” is on record as “+22 mmHg” in assay [2] (SC 0.1 mg/kg, at 1 h); “+22 mmHg” in assay [2] (SC 0.6 mg/kg, at 2 h); “+38 mmHg” in assay [2] (SC 4 mg/kg, at 3 and 4 h); “+46 mmHg” in assay [2] (SC 20 mg/kg, at 4 h). For the same substance, the “time for which increases from baseline in MAP above 20 mmHg were sustained” value in assay [3] (monkeys, SC bolus 0.01 mg/kg) stood at 150 min; in assay [3] (monkeys, SC bolus 0.05 mg/kg) it was 75 min; in assay [3] (monkeys, SC bolus 0.5 mg/kg), 300 min. The “average increase in MAP between 30 min and 5 h after administration” value is 20.6 mmHg in assay [3] (monkeys, SC bolus 0.01 mg/kg); 18.4 mmHg in assay [3] (monkeys, SC bolus 0.05 mg/kg); 24.8 mmHg in assay [3] (monkeys, SC bolus 0.5 mg/kg). For the same substance, in assay [3] (monkeys, SC bolus 0.5 mg/kg, on average), the “Δ MAP maintained throughout the 8 h of measurement” value was “above 14 mmHg”. In addition, the “maximum Δ MAP” value in assay [3] (SC bolus 0.01 mg/kg) was determined as 36.1 ± 2.1 mmHg; in assay [3] (SC bolus 0.05 mg/kg) it was 34.9 ± 1.1 mmHg; in assay [3] (SC bolus 0.5 mg/kg) it was 41.6 ± 6.5 mmHg. In addition, the 50% effective concentration (EC50) in assay [4] is 0.7 nM. In addition, the “activity at human V2 receptors” value in assay [5] (at clinically relevant concentrations) is given as “little to no activity”. Besides, in assay [5] (cell-based functional assays), the “activity at the human V2 receptor” value is on record as “no activity”. For the same substance, in assay [6], the “activity at the rat V2 receptor” value was “no activity”.

On to “N-[N-(N-glycylglycyl) glycyl]-8-L-lysinevasopressin [Terlipressin]”, for which the “time past which MAP increases from baseline above 20 mmHg were not sustained” value in assay [3] (monkeys, IV bolus 0.03 mg/kg, on average) is at most 30 min; in assay [3] (monkeys, IV bolus 0.09 mg/kg, on average), at most 30 min; in assay [3] (monkeys, IV bolus 0.17 mg/kg, on average), at most 75 min; in assay [3] (monkeys, IV bolus 0.34 mg/kg, on average), at most 90 min. Moreover, the “average increase in MAP between 30 min and 5 h” value came out at 6.0 mmHg in assay [3] (monkeys, IV bolus 0.03 mg/kg); 5.8 mmHg in assay [3] (monkeys, IV bolus 0.09 mg/kg); 14.6 mmHg in assay [3] (monkeys, IV bolus 0.17 mg/kg); 14.7 mmHg in assay [3] (monkeys, IV bolus 0.34 mg/kg). The “time after administration by which ΔMAP was negligible” value in assay [3] (monkeys, IV bolus, all treatment groups 0.03 to 0.34 mg/kg, on average) was at most 150 min. Besides, the “maximum MAP values (increase from baseline)” value in assay [3] (IV bolus 0.03 mg/kg) was found to be 29.6 ± 3.6 mmHg; in assay [3] (IV bolus 0.09 mg/kg), 29.9 ± 6.2 mmHg; in assay [3] (IV bolus 0.17 mg/kg), 50.8 ± 5.6 mmHg; in assay [3] (IV bolus 0.34 mg/kg), 41.2 ± 7.5 mmHg.
